According to patent publication US20240041042A1, “1-(PYRIDYL)-5-AZINYLPYRAZOLE DERIVATIVES, AND THEIR USE FOR CONTROL OF UNDESIRED PLANT GROWTH” (Bayer Aktiengesellschaft, priority 2020, published 2024):
Read-outs that look alike come from different tables or passages of the source.

Assays:
Format in all cases: in vivo
[1] = tested on: Verconica persica (VERPE); assay: Post-emergence herbicidal action against VERPE
Protocol: (§1) Seeds of monocotyledonous and dicotyledonous weeds and crop plants are placed in sandy loam in plastic or organic planting pots, covered with soil and cultivated in a greenhouse under controlled growth conditions. 2 to 3 weeks after sowing, the test plants are treated at the one-leaf stage. The compounds of the invention, formulated in the form of wettable powders (WP) or as emulsion concentrates (EC), are then sprayed onto the green parts of the plants as aqueous suspension or emulsion with addition of 0.5% additive at a water application rate of 600 l/ha (converted). After the test plants have been kept in the greenhouse under optimum growth conditions for about 3 weeks, the activity of the preparations is rated visually in comparison to untreated controls. For example, 100% activity=the plants have died, 0% activity=like control plants.
(§2) Tables B1 to B13 below show the effects of selected compounds of the general formula (I) according to Table 1 on various harmful plants and at an application rate corresponding to 320 g/ha or lower, which were obtained by the experimental procedure mentioned above. The appendices “a”, “b” and “c” give differentiation by dosage used with otherwise the same harmful plants tested.

[2] = tested on: Alopecurus myosuroides (ALOMY); assay: Post-emergence herbicidal action against ALOMY; details: visual rating about 3 weeks after treatment vs untreated controls (100% = plants have died, 0% = like control plants)
Protocol: as §1, §2

Avena fatua (AVEFA) [3] = assay: Post-emergence herbicidal action against AVEFA; details: visual rating about 3 weeks after treatment
Protocol: as §1, §2

[4] = tested on: Matricaria inodora (MATIN); assay: Pre-emergence herbicidal action against MATIN; details: dosage 320 g/ha
Description: (§3) Seeds of monocotyledonous and dicotyledonous weed plants and crop plants are placed in plastic or organic planting pots and covered with soil. The compounds of the invention, formulated in the form of wettable powders (WP) or as emulsion concentrates (EC), are then applied to the surface of the covering soil as aqueous suspension or emulsion with addition of 0.5% additive at a water application rate equivalent to 600 l/ha. After the treatment, the pots are placed in a greenhouse and kept under good growth conditions for the trial plants. After about 3 weeks, the effect of the preparations is scored visually in comparison with untreated controls as percentages. For example, 100% activity=the plants have died, 0% activity=like control plants.
(§4) Tables A1 to A13 below show the effects of selected compounds of the general formula (I) on various harmful plants and at an application rate corresponding to 320 g/ha or lower, which were obtained by the experimental procedure mentioned above. The appendices “a”, “b” and “c” give differentiation by dosage used with otherwise the same harmful plants tested.

[5] = tested on: Echinochloa crus-galli (ECHCG); assay: Post-emergence herbicidal action against ECHCG
Protocol: as §1, §2

Lolium rigidum (LOLRI) [6] = assay: Pre-emergence herbicidal action against LOLRI
Description: as §3, §4

[7] = tested on: Pharbitis purpurea (PHBPU); assay: Pre-emergence herbicidal action against PHBPU; details: dosage 320 g/ha
Description: as §3, §4

[8] = tested on: Verconica persica (VERPE); assay: Pre-emergence herbicidal action against VERPE
Description: as §3, §4

[9] = tested on: Amaranthus retroflexus (AMARE); assay: Pre-emergence herbicidal action against AMARE; details: visual scoring after about 3 weeks vs untreated controls
Description: as §3, §4

[10] = tested on: Echinochloa crus-galli (ECHCG); assay: Pre-emergence herbicidal action against ECHCG; details: dosage 320 g/ha
Description: as §3, §4

Avena fatua (AVEFA) [11] = assay: Pre-emergence herbicidal action against AVEFA; details: visual scoring after about 3 weeks vs untreated controls
Description: as §3, §4

[12] = tested on: Pharbitis purpurea (PHBPU); assay: Post-emergence herbicidal action against PHBPU; details: dosage 80 g/ha
Protocol: as §1, §2

Oryza sativa (ORYSA) = details: crop plant compatibility
Protocol: as §1
(§5) The observed effects on selected crop plants are reported here in comparison to the untreated controls (values in %). The appendices “a”, “b” and “c” give differentiation by dosage used with otherwise the same crop plants tested.

Zea mays (ZEAMX) = tested on: Zea mays (ZEAMX)
Protocol: as §1, §5

[13] = tested on: Polygonum convolvulus (POLCO); assay: Pre-emergence herbicidal action against POLCO
Description: as §3, §4

Setaria viridis (SETVI) [14] = assay: Pre-emergence herbicidal action against SETVI
Description: as §3, §4

[15] = tested on: Alopecurus myosuroides (ALOMY); assay: Pre-emergence herbicidal action against ALOMY; details: scored visually after about 3 weeks, 100% = plants have died
Description: as §3, §4

Lolium rigidum (LOLRI) [16] = assay: Post-emergence herbicidal action against LOLRI
Protocol: as §1, §2

Viola tricolor (VIOTR) [17] = assay: Post-emergence herbicidal action against VIOTR
Protocol: as §1, §2

Viola tricolor (VIOTR) [18] = assay: Pre-emergence herbicidal action against VIOTR
Description: as §3, §4

[19] = tested on: Polygonum convolvulus (POLCO); assay: Post-emergence herbicidal action against POLCO
Protocol: as §1, §2

Setaria viridis (SETVI) [20] = assay: Post-emergence herbicidal action against SETVI; details: dosage 320 g/ha
Protocol: as §1, §2

[21] = tested on: Abutilon theophrasti (ABUTH); assay: Post-emergence herbicidal action against ABUTH; details: 320 g/ha, visual rating about 3 weeks after treatment vs untreated controls (100% = plants have died, 0% = like control plants)
Protocol: as §1, §2

[22] = tested on: Amaranthus retroflexus (AMARE); assay: Post-emergence herbicidal action against AMARE; details: 320 g/ha, visual rating about 3 weeks after treatment
Protocol: as §1, §2

[23] = 80 g/ha, effect in comparison to untreated controls

| Post-emergence action against ORYSA in % (Oryza sativa (ORYSA); [23]) | Structure (SMILES) | Post-emergence action against ALOMY in % ([2]; 80 g/ha) | Post-emergence action against AVEFA in % (Avena fatua (AVEFA) [3]; 80 g/ha) | Pre-emergence action against LOLRI in % (Lolium rigidum (LOLRI) [6]; dosage 80 g/ha) | Pre-emergence action against LOLRI in % (Lolium rigidum (LOLRI) [6]; dosage 320 g/ha) | Pre-emergence action against PHBPU in % [7] | Pre-emergence action against AMARE in % ([9]; 80 g/ha) | Pre-emergence action against AMARE in % ([9]; 320 g/ha) | Pre-emergence action against ECHCG in % [10] | Pre-emergence action against AVEFA in % (Avena fatua (AVEFA) [11]; 320 g/ha) | Pre-emergence action against POLCO in % ([13]; dosage 80 g/ha) | Pre-emergence action against POLCO in % ([13]; dosage 320 g/ha) | Pre-emergence action against SETVI in % (Setaria viridis (SETVI) [14]; dosage 320 g/ha) | Pre-emergence action against ALOMY ([15]; 80 g/ha) | Pre-emergence action against ALOMY ([15]; 320 g/ha) | Post-emergence action against LOLRI in % (Lolium rigidum (LOLRI) [16]; dosage 80 g/ha) | Post-emergence action against VIOTR in % (Viola tricolor (VIOTR) [17]; 80 g/ha) | Pre-emergence action against VIOTR in % (Viola tricolor (VIOTR) [18]; 320 g/ha, Viola tricolor) | Pre-emergence action against VIOTR in % (Viola tricolor (VIOTR) [18]; dosage 80 g/ha) | further results |
| --- | --- | --- | --- | --- | --- | --- | --- | --- | --- | --- | --- | --- | --- | --- | --- | --- | --- | --- | --- | --- |
| 0% | CCOC(=O)[C@@H](C)Oc1nn(-c2ncccc2F)c(-c2ccc(F)nc2)c1Cl [Example I-32] | 90% | 90% | 90% | 100% | 80% | 90% | 100% | 100% | 100% | 90% | 90% | 100% | 90% | 100% | 90% | 80% | 100% | 100% | Post-emergence action against VERPE in % ([1]; dosage 80 g/ha): 80%; Pre-emergence action against MATIN in % [4]: 90%; Post-emergence action against ECHCG in % ([5]; dosage 80 g/ha): 80%; Pre-emergence action against VERPE in % ([8]; dosage 80 g/ha): 80%; Pre-emergence action against VERPE in % ([8]; dosage 320 g/ha): 100%; Pre-emergence action against AVEFA in % (Avena fatua (AVEFA) [11]; 80 g/ha): 90%; Post-emergence action against PHBPU in % [12]: 80%; Post-emergence action against ORYSA in % (Oryza sativa (ORYSA); 20 g/ha, effect vs untreated controls): 0%; Post-emergence action against ZEAMX in % (crop plant compatibility) (Zea mays (ZEAMX); 20 g/ha, ZEAMX, effect in comparison to untreated controls): 20%; Pre-emergence action against SETVI in % (Setaria viridis (SETVI) [14]; dosage 80 g/ha): 100% |
| 0% | COC(=O)C(C)NC(=O)[C@@H](C)Oc1nn(-c2ccccn2)c(-c2ccc(F)nc2)c1Cl (stereo partly shown) [Example I-358] | 90% | 90% | 100% | 100% | 80% | 80% | 100% | 100% | 80% | 80% | 90% | 100% | 80% | 100% | 90% | 90% | 100% | 80% | Post-emergence action against VERPE in % ([1]; 320 g/ha, VERPE): 80%; Post-emergence action against ALOMY in % ([2]; 320 g/ha): 90%; Post-emergence action against AVEFA in % (Avena fatua (AVEFA) [3]; 320 g/ha): 90%; Post-emergence action against ECHCG in % ([5]; dosage 320 g/ha): 90%; Post-emergence action against POLCO in % ([19]; dosage 80 g/ha): 90%; Post-emergence action against POLCO in % ([19]; dosage 320 g/ha): 90%; Post-emergence action against SETVI in % (Setaria viridis (SETVI) [20]): 90%; Post-emergence action against ABUTH in % [21]: 80%; Post-emergence action against ORYSA in % (Oryza sativa (ORYSA); 320 g/ha, effect in comparison to untreated controls): 0%; Post-emergence action against ZEAMX in % (Zea mays (ZEAMX); crop plant compatibility, 80 g/ha, effect vs untreated controls): 0%; Post-emergence action against AMARE in % [22]: 90%; Post-emergence action against LOLRI in % (Lolium rigidum (LOLRI) [16]; dosage 320 g/ha): 90%; Post-emergence action against VIOTR in % (Viola tricolor (VIOTR) [17]; 320 g/ha): 90% |
